Results on 24 molecules are retold here after US20250066359A1, “SOMATOSTATIN RECEPTOR SUBTYPE 5 ANTAGONISTS, AND PHARMACEUTICAL COMPOSITION AND USE THEREOF” (SHANGHAI INSTITUTE OF MATERIA MEDICA, CHINESE ACADEMY OF …, priority 2021, published 2025).

One assay addresses T1, hSSTR5 (Homo sapiens, UniProt P35346).
T1 construct: expressed in transfected cells; host or cells: CHO cells co-expressing Gα16 (hSSTR5-CHO-Gα16)
The experiment in a line: SSTR5 antagonistic activity in vitro by calcium flow detection (hSSTR5-CHO-Gα16 cells). Conditions: for IC50: hSSTR5-CHO-Gα16 cells, 100 nM Somatostatin-14 agonist, Fluo-4 fluorescence 525 nm; for SSTR5 antagonistic activity (in words): summary of Table 1. Type of assay: cell-based. The text has this:
(§1) Testing SSTR5 antagonistic activity in vitro by Calcium flow detection method Experimental principle: After the receptor binds to the ligand and is activated, it can cause the activation of Gα16 protein, which further activates phospholipase C(PLC) to produce IP3 and DAG. IP3 can bind to the IP3 receptors on the endoplasmic reticulum and mitochondria in the cell, thereby causing the release of intracellular calcium. Therefore, measuring the changes in intracellular calcium can be used in the method to detect the activation state of hSSTR5. Fluo-4/AM is a calcium fluorescent probe indicator used to measure calcium ions. As a non-polar lipid-soluble compound, after it enters the cell, the AM group therein dissociates, and Fluo-4 is released under the action of cellular lipase; because Fluo-4 is a polar molecule and is not easy to pass through the lipid bilayer membrane, it can keep Fluo-4 in the cell fora longtime. Finally, the level of Ga protein activation can be reflected by measuring the intensity of the excited fluorescence. Somatostatin, an agonist of SSTR5, can activate SSTR5 receptors and greatly increase the calcium flow response. The SSTR5 antagonist to be tested can inhibit the agonist activity of the SSTR5 receptor and reduce the calcium increased flow response of the receptor stimulated by the agonist.
(§2) • (1) The hSSTR5-CHO-Gα16 and mSSTR5-CHO-Gα16 cell lines stably expressing hSSTR5 or mSSTR5 receptors were seeded at a density of 30,000/well in a 96-well plate and cultured in a 37° C. incubator overnight. • (2) The cells was aspirated off the culture medium, added with freshly prepared dye at 40 μL/well, and incubated in a 37° C. incubator for 45 minutes. • (3) After the dye was aspirated and discarded, the cells were washed with freshly prepared calcium buffer and the culture medium was replaced with 50 μL of calcium buffer. • (4) The SSTR5 agonist Somatostatin-14 was diluted and mixed evenly with calcium buffer. • (5) Detection was performed using a Flextation instrument. Starting from the 15th second, 25 μL of the pre-prepared agonist was automatically added by the instrument, and the fluorescence value at 525 nm was read.

The target in a further assay is T2, mSSTR5 (Mus musculus, UniProt O08858).
T2 construct: expressed in transfected cells; host or cells: CHO cells co-expressing Gα16 (mSSTR5-CHO-Gα16)
T2 sequence (O08858 1-362): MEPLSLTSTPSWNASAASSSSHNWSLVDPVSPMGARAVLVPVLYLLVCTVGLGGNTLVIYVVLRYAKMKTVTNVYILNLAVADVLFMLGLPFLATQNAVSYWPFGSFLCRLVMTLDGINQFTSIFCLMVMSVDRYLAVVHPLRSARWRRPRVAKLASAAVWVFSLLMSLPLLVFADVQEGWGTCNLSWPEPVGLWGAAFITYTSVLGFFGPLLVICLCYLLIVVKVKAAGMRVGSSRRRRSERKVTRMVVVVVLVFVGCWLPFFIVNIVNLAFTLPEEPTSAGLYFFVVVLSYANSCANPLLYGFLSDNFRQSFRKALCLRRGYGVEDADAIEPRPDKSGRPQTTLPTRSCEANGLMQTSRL
Briefly: SSTR5 antagonistic activity in vitro by calcium flow detection (mSSTR5-CHO-Gα16 cells). Type of assay: cell-based. Conditions: 100 nM Somatostatin-14 agonist, Fluo-4 fluorescence 525 nm.
Text: as §1, §2

Usually IC50 stands for the concentration that gives 50% inhibition.

T1 sequence (P35346 whole entry): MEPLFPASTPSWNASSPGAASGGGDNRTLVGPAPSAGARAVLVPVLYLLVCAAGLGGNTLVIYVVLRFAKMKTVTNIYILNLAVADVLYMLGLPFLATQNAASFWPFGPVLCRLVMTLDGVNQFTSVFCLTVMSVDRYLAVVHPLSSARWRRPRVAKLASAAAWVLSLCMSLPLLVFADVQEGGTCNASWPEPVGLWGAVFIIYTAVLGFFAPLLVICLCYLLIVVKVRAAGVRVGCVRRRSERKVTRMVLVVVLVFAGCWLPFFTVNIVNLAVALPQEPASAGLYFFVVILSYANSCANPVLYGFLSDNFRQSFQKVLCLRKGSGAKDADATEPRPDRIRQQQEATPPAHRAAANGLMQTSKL

As to `CCOc1cc(CN2CC3(CC(=O)N(c4ccc(C(=O)O)cc4)C3)C2)cc(OCC)c1-c1ccc(F)cc1` [Example 7, 4-(2-((2,6-diethoxy-4′-fluoro-[1,1′-biphenyl]-4-yl)methyl)-7-oxo-2,6-diazaspiro[3.4]octane-6-yl)benzoic acid], the IC50 on hSSTR5 and on mSSTR5 was 0.0001 to 0.05 µM throughout. For the same molecule, the “SSTR5 antagonistic activity (in words)” value on hSSTR5 is “potent SSTR5 antagonistic activity”. As for `CCOc1cc(CN2CCC(C3CN(S(=O)(=O)c4ccc(OC(F)(F)F)cc4)C3)CC2)cc(OCC)c1-c1ccc(F)cc1` [Example 14], the IC50 at hSSTR5 and on mSSTR5 was 0.0001 to 0.05 µM in each case.

For `CCOc1cc(CN2CCC(C3CN(c4ccc(C(=O)O)cc4)C3)CC2)cc(OCC)c1-c1ccc(F)cc1` [Example 4, 4-(3-(1-((2,6-diethoxy-4′-fluoro-[1,1′-biphenyl]-4-yl)methyl)piperidin-4-yl)azetidin-1-yl)benzoic acid], the IC50 at hSSTR5 lay in the range of 0.05 to 0.2 µM.

`CCOc1cc(CN2CCC3(CC2)CC(NS(=O)(=O)c2ccc(OC(F)(F)F)cc2)C3)cc(OCC)c1-c1ccc(F)cc1` [Example 11, N-(7-((2,6-diethoxy-4′-fluoro-[1,1′-biphenyl]-4-yl)methyl)-7-azaspiro[3.5]nonan-2-yl)-4-(trifluoromethoxy)benzenesulfonamide]: the values for the IC50 at hSSTR5 and at mSSTR5 were 0.05 to 0.2 µM and 0.0001 to 0.05 µM, respectively.

Take `CCOc1cc(CN2CCN(C3CCN(S(=O)(=O)c4ccc(C(=O)O)cc4)CC3)CC2)cc(OCC)c1-c1ccc(F)cc1` [Example 15, 4-((4-(4-((2,6-diethoxy-4′-fluoro-[1,1′-biphenyl]-4-yl)methyl)piperazin-1-yl)piperidin-1-yl)sulfonyl)benzoic acid]: the IC50 at hSSTR5 was more than 0.2 µM. Consider `CCOc1cc(CN2CCC3C(CCN3c3ccc(C(=O)O)cc3)C2)cc(OCC)c1-c1ccc(F)cc1` (centres unmarked) [Example 2, 4-(5-((2,6-diethoxy-4′-fluoro-[1,1′-biphenyl]-4-yl)methyl)octahydro-1H-pyrrolo[3,2-c]pyridin-1-yl)benzoic acid], for which, at hSSTR5, the IC50 is 0.0001 to 0.05 µM and the “SSTR5 antagonistic activity (in words)” value is listed as “potent SSTR5 antagonistic activity”. Besides, the IC50 on mSSTR5 lay within 0.05 to 0.2 µM.

Take `CCOc1cc(CN2CCN(S(=O)(=O)c3ccc(OC(F)(F)F)cc3)CC2)cc(OCC)c1-c1ccc(F)cc1` [Example 16, 1-((2,6-diethoxy-4′-fluoro-[1,1′-biphenyl]-4-yl)methyl)-4-((4-(trifluoromethoxy)phenyl)sulfonyl)piperazine]: the IC50 on hSSTR5 was more than 0.2 µM. As for `CCOc1cc(CN2CCC3(CC2)CN(c2ccc(C(=O)O)cc2)C3=O)cc(OCC)c1-c1ccc(F)cc1` [Example 18, 4-(7-((2,6-diethoxy-4′-fluoro-[1,1′-biphenyl]-4-yl)methyl)-1-oxo-2,7-diazaspiro[3.5]nonan-2-yl)benzoic acid], on hSSTR5, the IC50 was in the range of 0.0001 to 0.05 µM and the “SSTR5 antagonistic activity (in words)” value was “potent SSTR5 antagonistic activity”. Consider `CCOc1cc(CN2CCC3(CC2)CN(c2ccc(C(=O)O)cc2)CCO3)cc(OCC)c1-c1ccc(F)cc1` [Example 5], for which, on hSSTR5, the IC50 is 0.05 to 0.2 µM. Same read-out and setting: the result for `CCOc1cc(CN2CCC3(CCC(=O)N(c4ccc(C(=O)O)cc4)C3)CC2)cc(OCC)c1-c1ccc(F)cc1` [Example 1, 4-(9-((2,6-diethoxy-4′-fluoro-[1,1′-biphenyl]-4-yl)methyl)-3-oxo-2,9-diazaspiro[5.5]undec-2-yl)benzoic acid] reads 0.05 to 0.2 µM.

For the molecule `CCOc1cc(CN2CC3(CC(=O)N(c4ccc(C(=O)O)cc4)C3)C2)ccc1O` [Example 26, 4-(2-(3-ethoxy-4-hydroxybenzyl)-7-oxo-2,6-diazaspiro[3.4]octyl-6-yl)benzoic acid], the concentration for half-maximal inhibition (IC50) at hSSTR5 was more than 0.2 µM. Take `CCOc1cc(CN2CCC3(CC2)CN(c2ccc(C(=O)O)cc2)C3)c(-c2ccc(F)c(F)c2F)cc1C` [Example 20, 4-(7-((4-ethoxy-2′,3′,4′-trifluoro-5-methyl-[1,1′-biphenyl]-2-yl)methyl)-2,7-diazaspiro[3,5]nonan-2-yl)benzoic acid]: the concentration for half-maximal inhibition (IC50) at hSSTR5 lay in the range of 0.05 to 0.2 µM. Same read-out and setting: under `CCOc1cc(CN2CCN(S(=O)(=O)c3ccc(C(=O)O)cc3)CC2)cc(OCC)c1-c1ccc(F)cc1` [Example 17, 4-((4-((2,6-diethoxy-4′-fluoro-[1,1′-biphenyl]-4-yl)methyl)piperazin-1-yl)sulfonyl)benzoic acid] stands 0.05 to 0.2 µM; under `CCOc1cc(CN2CC3(CC(=O)N(c4ccc(C(=O)O)cc4)C3)C2)ccc1F` [Example 21, 4-(2-(3-ethoxy-4-fluorobenzyl)-7-oxy-2,6-diazaspiro[3.4]octan-6-yl)benzoic acid], more than 0.2 µM. Same read-out and setting: the result for `CCOc1ccc(C2CC2)c(CN2CC3(CC(=O)N(c4ccc(C(=O)O)cc4)C3)C2)c1` [Example 9, 4-(2-(2-cyclopropyl-5-ethoxybenzyl)-7-oxo-2,6-diazaspiro[3.4]octyl-6-yl)benzoic acid] reads 0.05 to 0.2 µM. For the molecule `CCOc1cc(CN2CCC3(CC2)CN(c2ccc(C(=O)O)cc2)C3)c(C2CC2)cc1C` [Example 19, 4-(7-(2-cyclopropyl-5-ethoxy-4-methylbenzyl)-2,7-diazaspiro[3,5]nonan-2-yl)benzoic acid], on hSSTR5, the IC50 was in the range of 0.0001 to 0.05 µM and the “SSTR5 antagonistic activity (in words)” value is “potent SSTR5 antagonistic activity”. Consider `CCOc1cc(CN2CC3(CC(Nc4ccc(C(=O)O)cc4)C3)C2)cc(OCC)c1-c1ccc(F)cc1` [Example 6, 4-((2-((2,6-diethoxy-4′-fluoro-[1,1′-biphenyl]-4-yl)methyl)-2-azaspiro[3.3]heptane-6-yl)amino)benzoic acid], for which, on hSSTR5, the IC50 was more than 0.2 µM. The same measure, in the same setting: under `CCOc1cc(CN2CC3(CC(=O)N(c4ccc(C(=O)O)cc4)C3)C2)c(C2CC2)cc1C` [Example 8, 4-(2-(2-cyclopropyl-5-ethoxy-4-methylbenzyl)-7-oxo-2,6-diazaspiro[3.4]octane-6-yl)benzoic acid] stands 0.05 to 0.2 µM; under `CCOc1cc(CN2CCC3(CC2)CN(c2ccc(C(=O)O)cc2)C3)ccc1N(CC)CC` [Example 25, 4-(7-(4-(diethylamino)-3-ethoxybenzyl)-2,7-diazaspiro[3.5]nonan-2-yl)benzoic acid], 0.05 to 0.2 µM.

As to `CCOc1cc(CN2CCC3(CC2)CCN(c2ccc(C(=O)O)cc2)C(=O)C3)cc(OCC)c1-c1ccc(F)cc1` [Example 3, 4-(9-((2,6-diethoxy-4′-fluoro-[1,1′-biphenyl]-4-yl)methyl)-2-oxo-3,9-diazaspiro[5.5]undec-3-yl)benzoic acid], on hSSTR5, the IC50 was 0.05 to 0.2 µM. Same read-out and setting: under `CCOc1cc(CN2CC3(CC(=O)N(c4ccc(C(=O)O)cc4)C3)C2)ccc1C` [Example 22, 4-(2-(3-ethoxy-4-methylbenzyl)-7-oxy-2,6-diazaspiro[3.4]octan-6-yl)benzoic acid] stands more than 0.2 µM; under `CCOc1cc(CN2CCC(N3CCN(S(=O)(=O)c4ccc(OC(F)(F)F)cc4)CC3)CC2)cc(OCC)c1-c1ccc(F)cc1` [Example 13], more than 0.2 µM; under `O=C(O)c1ccc(N2CC3(CC2=O)CN(Cc2cc(C(F)(F)F)ccc2C2CC2)C3)cc1` [Example 23, 4-(2-(2-cyclopropyl-5-(trifluoromethyl)benzyl)-7-oxo-2,6-diazaspiro[3.4]octyl-6-yl)benzoic acid], more than 0.2 µM. On the same count and under the same terms, the result for `CCOc1cc(CN2CCC3(CC2)CN(c2ccc(C(=O)O)cc2)C3)ccc1F` [Example 24, 4-(7-(3-ethoxy-4-fluorobenzyl)-2,7-diazaspiro[3.5]nonan-2-yl)benzoic acid] reads 0.05 to 0.2 µM.
